Measured values taken from patent publication US20060161001A1, “Substituted heterocyclic compounds and methods of use” (Amgen Inc., priority 2004, published 2006).

system: LPS induced TNF release; assay: THP1 cell assay (LPS induced TNF release); assay type: cell-based; conditions: Homo sapiens, THP-1; THP1 cells, LPS induced TNF-α secretion, 3 h at 37° C.
Description: Lipopolysaccharide-Activated THP1 Cell TNF Production Assay
THP1 cells are resuspended in fresh THP1 media (RPMI 1640, 10% heat-inactivated FBS, 1XPGS, 1XNEAA, plus 30 μM OME) at a concentration of 1E6/mL. One hundred microliters of cells per well are plated in a polystyrene 96-well tissue culture. One microgram per mL of bacterial LPS is prepared in THP1 media and is transferred to the wells. Test compounds are dissolved in 100% DMSO and are serially diluted 3-fold in a polypropylene 96-well microtiter plate (drug plate). HI control and LO control wells contain only DMSO. One microliter of test compound from the drug plate followed by 10 μL of LPS are transferred to the cell plate. The treated cells are induced to synthesize and secrete TNF-α at 37° C. for 3 h. Forty microliters of conditioned media are transferred to a 96-well polypropylene plate containing 110 μL of ECL buffer (50 mM Tris-HCl pH 8.0, 100 mM NaCl, 0.05% Tween 20, 0.05% NaN3 and 1% FBS) supplemented with 0.44 nM MAB610 monoclonal Ab (R&D Systems), 0.34 nM ruthenylated AF210NA polyclonal Ab (R&D Systems) and 44 μg/mL sheep anti-mouse M280 Dynabeads (Dynal). After a 2 h incubation at RT with shaking, the reaction is read on the ECL M8 Instrument (IGEN Inc.). A low voltage is applied to the ruthenylated TNF-α immune complexes, which in the presence of TPA (the active component in Origlo), results in a cyclical redox reaction generating light at […]. The amount of secreted TNF-α in the presence of compound compared with that in the presence of DMSO vehicle alone (HI control) is calculated using the formula: % control (POC)=(cpd−average LO)/(average HI−average LO)*100. Data (consisting of POC and inhibitor concentration in μM) is fitted to a 4-parameter equation (y=A+((B−A)/(I+((x/C)ˆD))), where A is the minimum y (POC) value, B is the maximum y (POC), C is the x (cpd concentration) at the point of inflection and D is the slope factor) using a Levenburg-Marquardt non-linear regression algorithm.

IC50, ≤ 20 µM:
CC(=O)NC1CCC(Nc2nccc(N3CCCc4ccc(-c5ccccc5)nc43)n2)CC1 [Example 90, N-((1R,4R)-4-(4-(7-Phenyl-3,4-dihydro-1,8-naphthyridin-1(2H)-yl)pyrimidin-2-ylamino)cyclohexyl)acetamide]
CC(Cc1cccc(CN)c1)Nc1nc(N2CCCc3ccc(-c4ccccc4)nc32)cc(C(F)(F)F)n1 (centres unmarked) [Example 58, N-(1-(3-(Aminomethyl)phenyl)propan-2-yl)-4-(7-phenyl-3,4-dihydro-1,8-naphthyridin-1(2H)-yl)-6-(trifluoromethyl)pyrimidin-2-amine]
Fc1cnc(NC2CCNCC2)nc1N1CCCc2cnc(-c3ccccc3)cc21 [Example 25, 5-Fluoro-4-(7-phenyl-3,4-dihydro-1,6-naphthyridin-1(2H)-yl)-N-(piperidin-4-yl)pyrimidin-2-amine]
C[C@@H](Cc1cccc(C(C)(C)N)c1)Nc1nccc(N2CCCc3ncc(-c4ccccc4)cc32)n1 [Example 29, (S)-N-(1-(3-(2-Aminopropan-2-yl)phenyl)propan-2-yl)-4-(7-phenyl-3,4-dihydro-1,5-naphthyridin-1(2H)-yl)pyrimidin-2-amine]
O=C(C[C@@H](Cc1ccccc1)Nc1nccc(N2CCCc3cnc(-c4ccccc4)cc32)n1)NC1CC1 [Example 21, (R)-N-Cyclopropyl-4-phenyl-3-(4-(7-phenyl-3,4-dihydro-1,6-naphthyridin-1(2H)-yl)pyrimidin-2-ylamino)butanamide]
COCc1cc2c(nc1-c1ccccc1)N(c1ccnc(NCCc3ccccc3)n1)CCC2 [Example 68, 4-(6-(Methoxymethyl)-7-phenyl-3,4-dihydro-1,8-naphthyridin-1(2H)-yl)-N-phenethylpyrimidin-2-amine]
N[C@H]1CC[C@H](Nc2nccc(N3CCCc4cc(CO)c(-c5ccccc5)nc43)n2)CC1 [Example 76, (8-(2-((1R,4R)-4-Aminocyclohexylamino)pyrimidin-4-yl)-2-phenyl-5,6,7,8-tetrahydro-1,8-naphthyridin-3-yl)methanol]
CC(=O)c1cc2c(nc1-c1ccccc1)N(c1ccnc(NCCc3ccccc3)n1)CCC2 [Example 72, 1-(8-(2-(Phenethylamino)pyrimidin-4-yl)-2-phenyl-5,6,7,8-tetrahydro-1,8-naphthyridin-3-yl)ethanone]
NC1CCC(Nc2nccc(N3CCCc4cnc(-c5ccccc5)cc43)n2)CC1 [Example 34, (1R,4R)-N^1-(4-(7-Phenyl-3,4-dihydro-1,6-naphthyridin-1(2H)-yl)pyrimidin-2-yl)cyclohexane-1,4-diamine]
C[C@@H](Cc1cccc([C@@H](C)N)c1)Nc1nccc(N2CCCc3cnc(-c4ccccc4)cc32)n1 [Example 10, N-((S)-1-(3-((R)-1-Aminoethyl)phenyl)propan-2-yl)-4-(7-phenyl-3,4-dihydro-1,6-naphthyridin-1(2H)-yl)pyrimidin-2-amine]
OCc1cc(-c2ccccc2)nc2c1CCCN2c1ccnc(NCCc2ccccc2)n1 [Example 86, (8-(2-(Phenethylamino)pyrimidin-4-yl)-2-phenyl-5,6,7,8-tetrahydro-1,8-naphthyridin-4-yl)methanol]
CCNCCC(=O)N1CCC(Nc2nccc(N3CCCc4cnc(-c5ccccc5)cc43)n2)CC1 [Example 16, 3-(Ethylamino)-1-(4(4-(7-phenyl-3,4-dihydro-1,6-naphthyridin-1(2H)-yl)pyrimidin-2-ylamino)piperdin-1-yl)propan-1-one]
c1ccc(-c2ncc3c(n2)N(c2ccnc(NC4CCNCC4)n2)CCO3)cc1 [Example 106, 4-(2-Phenyl-6,7-dihydropyrimido[5,4-b][1,4]oxazin-8-yl)-N-(piperidin-4-yl)-pyrimidin-2-amine]
CCOC(=O)c1cc2c(nc1-c1ccccc1)N(c1ccnc(N[C@H]3CC[C@H](N)CC3)n1)CCC2 [Example 75, Ethyl 8-(2-((1R,4R)-4-aminocyclohexylamino)pyrimidin-4-yl)-2-phenyl-5,6,7,8-tetrahydro-1,8-naphthyridine-3-carboxylate]
CCOC(=O)c1cc2c(nc1-c1ccccc1)N(c1ccnc(NC3CCN(C(=O)OC(C)(C)C)CC3)n1)CCC2 [Example 74, Ethyl 8-(2-(1-(tert-butoxycarbonyl)piperidin-4-ylamino)pyrimidin-4-yl)-2-phenyl-5,6,7,8-tetrahydro-1,8-naphthyridine-3-carboxylate]
O=C(O)c1cc2c(nc1-c1ccccc1)N(c1ccnc(NCCc3ccccc3)n1)CCC2 [Example 69, 8-(2-(Phenethylamino)pyrimidin-4-yl)-2-phenyl-5,6,7,8-tetrahydro-1,8-naphthyridine-3-carboxylic acid]
CC(Cc1cccc(CO)c1)Nc1nccc(N2CCCc3ccc(-c4ccccc4)nc32)n1 (centres unmarked) [Example 48, (3-(2-(4-(7-Phenyl-3,4-dihydro-1,8-naphthyridin-1(2H)-yl)pyrimidin-2-yl-amino)propyl)phenyl)methanol]
O=C(O)[C@@H](Cc1ccccc1)Nc1nccc(N2CCCc3cnc(-c4ccccc4)cc32)n1 [Example 18, (R)-3-Phenyl-2-(4-(7-phenyl-3,4-dihydro-1,6-naphthyridin-1(2H)-yl)pyrimidin-2-ylamino)propanoic acid]
CC(=O)NC1CCC(Nc2nccc(N3CCCc4cnc(-c5ccccc5)cc43)n2)CC1 [Example 35, N-((1R,4R)-4-(4-(7-Phenyl-3,4-dihydro-1,6-naphthyridin-1(2H)-yl)pyrimidin-2-ylamino)cyclohexyl)acetamide]
CC(=O)N1CCC(Nc2nccc(N3CCCc4ncc(-c5ccccc5)cc43)n2)CC1 [Example 32, 1-(4-(4-(7-Phenyl-3,4-dihydro-1,5-naphthyridin-1(2H)-yl)pyrimidin-2-ylamino)-piperidin-1-yl)ethanone]
CC(C)NCC(C)(C)Nc1nccc(N2CCCc3cnc(-c4ccccc4)cc32)n1 [Example 43, N-(1-(Isopropylamino)-2-methylpropan-2-yl)-4-(7-phenyl-3,4-dihydro-1,6-naphthyridin-1(2H)-yl) pyrimidin-2-amine]
CC(C)NCCC(=O)N1CCC(Nc2nccc(N3CCCc4cnc(-c5ccccc5)cc43)n2)CC1 [Example 14, 3-(Isopropylamino)-1-(4(4-(7-phenyl-3,4-dihydro-1,6-naphthyridin-1(2H)-yl)pyrimidin-2-ylamino)piperdin-1-yl)propan-1-one]
O=C(C[C@@H](Cc1ccccc1)Nc1nccc(N2CCCc3cnc(-c4ccccc4)cc32)n1)N1CCNCC1 [Example 22, (R)-4-Phenyl-3-(4-(7-phenyl-3,4-dihydro-1,6-naphthyridin-1(2H)-yl)pyrimidin-2-ylamino)-1-(piperazin-1yl)butan-1-one]
CCOC(=O)c1cc2c(nc1-c1ccccc1)N(c1ccnc(NCCc3ccccc3)n1)CCC2 [Example 66, Ethyl 8-(2-(Phenethylamino)pyrimidin-4-yl)-2-phenyl-5,6,7,8-tetrahydro-1,8-naphthyridine-3-carboxylate]
CN(C)CC(C)(C)CNc1nccc(N2CCCc3ccc(-c4ccccc4)nc32)n1 [Example 51, N-(3-(Dimethylamino)-2,2-dimethylpropyl)-4-(7-phenyl-3,4-dihydro-1,8-naphthyridin-1(2H)-yl)pyrimidin-2-amine]
c1ccc(-c2cnc3c(c2)N(c2ccnc(NC4CCNCC4)n2)CCC3)cc1 [Example 31, 4-(7-Phenyl-3,4-dihydro-1,5-naphthyridin-1(2H)-yl)-N-(piperidin-4-yl)pyrimidin-2-amine]
Cc1cc(N2CCCc3ccc(-c4ccccc4)nc32)nc(NC2CCN(C(=O)OC(C)(C)C)CC2)n1 [Example 60, tert-Butyl 4-(4-methyl-6-(7-phenyl-3,4-dihydro-1,8-naphthyridin-1(2H)-yl)-pyrimidin-2-ylamino)piperidine-1-carboxylate]
CC(Cc1cccc(CN)c1)Nc1nccc(N2CCCc3cnc(-c4ccccc4)cc32)n1 (centres unmarked) [Example 5, N-(1-(3-(Aminomethyl)phenyl)propan-2-yl)-4-(7-phenyl-3,4-dihydro-1,6-naphthyridin-1(2H)-yl)pyrimidin-2-amine]
CC(=O)N1CCC(Nc2ncc(F)c(N3CCCc4cnc(-c5ccccc5)cc43)n2)CC1 [Example 26, 1-(4-(5-Fluoro-4-(7-phenyl-3,4-dihydro-1,6-naphthyridin-1(2H)-yl)pyrimidin-2-yl-amino)piperidin-1-yl)ethanone]
